# Assay results from US20150031892A1, “SPHINGOLIPID METABOLITE MIMETICS” (Zhejiang University, priority 2012, published 2015).
# Assays:
# Format in all cases: cell-based
# [1] = test system: HepG2; experiment: MTT cytotoxicity assay, HepG2 (liver cancer); settings: Homo sapiens
# Procedure: (§1) Cell survival after exposure to the sphingolipid metabolite mimetics was examined by MTT cytotoxicity assay. HepG2, A431, HeLa, MCF-7 and SA cells (7000 cells/well) were seeded in each well of a 96-well plate for 24 h. New medium was added to give final concentrations of 0 to 200 μM of the sphingolipid metabolite mimetics. Then, 50 μl of 1 mg/ml 3-(4,5-dimethylthiazol-2-yl)-2,5-diphenyltetrazolium bromide (MTT, Sigma-Aldrich Chemical) was added to each well for 4 h incubation at 37° C. The purple formazan formed was then solubilized by DMSO and absorbance at 570 nm was read by a microplate reader (Molecular Devices, Sunnyvale, Calif.).
# [2] = test system: A431; experiment: MTT cytotoxicity assay, A431 (squamous carcinoma); settings: Homo sapiens, A-431
# Procedure: as §1
# [3] = test system: SA; experiment: MTT cytotoxicity assay, SA (pancreatic cancer as headed)
# Procedure: as §1
# [4] = test system: MCF-7; experiment: MTT cytotoxicity assay, MCF-7 (breast cancer); settings: Homo sapiens, MCF7; Breast Cancer MCF-7, MTT
# Procedure: as §1
# [5] = test system: SiHa; experiment: MTT cytotoxicity assay, SiHa (ovarian cancer as headed); settings: Homo sapiens, Cervical Cancer SiHa
# [6] = test system: SW620; experiment: MTT cytotoxicity assay, SW620 (colon cancer); settings: Homo sapiens, SW-620
# [7] = test system: SW480; experiment: MTT cytotoxicity assay, SW480 (colon cancer); settings: Homo sapiens
# [8] = test system: multiple types of cancer cells; experiment: MTT cytotoxicity, statements over several cancer cell lines; settings: for direct anti-cancer cell activity: summary statement
# Procedure: as §1
Structure (SMILES),IC50 [1] [µM],IC50 [2] [µM],IC50 [3] [µM],IC50 [4] [µM],IC50 [5] [µM],IC50 [6] [µM],IC50 [7] [µM],direct anti-cancer cell activity [8],"IC50 ([8]; multiple types of cancer cells, read-out: IC50) [µM]"
"CCCCCCCCCCCCCCCCCCNC(=O)[C@@H](NC(=O)/C=C/c1ccccc1)[C@@H](C)O [NZJU26, (E)-N-((2S,3R)-3-hydroxy-1-oxo-1-(octadecylamino)butan-2-yl)-3-phenyl acrylic acid amide]",128 ± 9.04,177 ± 7.17,47.1 ± 0.54,39.2 ± 2.21,35.9 ± 2.64,≥ 200,123,direct anti-cancer cell activity,–
"CCCCCCCCCCCCCCCCCCNC(=O)[C@@H](NC(=O)Cc1c[nH]c2ccccc12)[C@@H](C)O [NZJU29, N-((2S,3R)-3-hydroxy-1-oxo-1-(octadecylamino)butan-2-yl)-indole-3-acetic acid amide]",57.6 ± 2.69,31.8 ± 1.93,54.9 ± 3.9,37.3 ± 1.82,65.8 ± 6.45,103 ± 7.48,60,direct anti-cancer cell activity,–
"CCCCCCCCCCCCCCCCCCNC(=O)[C@@H](NC(=O)c1cccs1)[C@@H](C)O [NZJU35, N-((2S,3R)-3-hydroxy-1-oxo-1-(octadecylamino)butan-2-yl)-2-thiophene carboxamide]",92 ± 7.76,33.3 ± 3.32,53.5 ± 5.32,25.7 ± 0.47,117 ± 3.9,≥ 200,89,–,–
"CCCCCCCCNC(=O)[C@@H](NC(=O)c1ccco1)[C@@H](C)O [NZJU40, N-((2S,3R)-3-hydroxy-1-oxo-1-(octylamino)butan-2-yl)-Furan-2-carboxamide]",192 ± 11.1,64.5 ± 0.78,64.65 ± 0.5,91.8 ± 4.21,124 ± 8.78,≥ 200,194,–,–
"CCCCCCCCNC(=O)[C@@H](NC(=O)/C=C/c1ccccc1)[C@@H](C)O [NZJU42, (E)-N-((2S,3R)-3-hydroxy-1-oxo-1-(octylamino)butan-2-yl)-3-phenyl acrylic acid amide]",55.6 ± 0.64,36 ± 3.36,25.6 ± 4.41,35.06 ± 0.2,41.4 ± 5.96,61.35 ± 0.27,62.7,–,–
"CCCCCCCCCCCCCCNC(=O)[C@@H](N)[C@@H](C)O [NZJU46, (2S,3R)-2-Amino-3-hydroxy-N-tetradecylbutanamide]",–,14.6 ± 0.76,11 ± 1.39,10.7 ± 0.98,11 ± 1.39,18.7 ± 3.81,–,direct anti-cancer cell activity,–
"CCCCCCCCCCCCNC(=O)[C@@H](NC(=O)c1cc2ccccc2[nH]1)[C@@H](C)O [NZJU47, N-((2S,3R)-3-hydroxy-1-oxo-1-(dodecylamino)butan-2-yl)-indole-2-carboxamide]",12 ± 2.38,10.3 ± 2.78,12.3 ± 2.75,–,21.25 ± 0.01,–,10.2 ± 0.73,direct anti-cancer cell activity,< 20
"CCCCCCCCCCCCCCNC(=O)[C@@H](NS(=O)(=O)c1ccc(C)cc1)[C@@H](C)O [NZJU57, N-((2S,3R)-3-hydroxy-1-oxo-1-(tetradecylamino)butan-2-yl)-4-methylbenzsulfonamide]",10.9 ± 0.54,12 ± 1.87,10.9 ± 1.25,–,19.2 ± 2.14,–,11.8 ± 1.38,direct anti-cancer cell activity,–
"CCCCCCCCCCCCCCNC(=O)[C@@H](NS(=O)(=O)c1cccs1)[C@@H](C)O [NZJU60, N-((2S,3R)-3-hydroxy-1-oxo-1-(tetradecylamino)butan-2-yl)-2-thiophene sulfonamide]",21.6 ± 2.05,22 ± 0.56,11.6 ± 2.2,–,20.4 ± 2.47,–,11.8 ± 1.25,direct anti-cancer cell activity,–
"CCCCCCCCCCCCCCNC(=O)[C@@H](NS(=O)(=O)c1ccc2ccccc2c1)[C@@H](C)O [NZJU62, N-((2S,3R)-3-hydroxy-1-oxo-1-(tetradecylamino)butan-2-yl)-2-naphthylsulfonamide]",11.4 ± 1.11,19.6 ± 2.16,10.2 ± 0.3,–,11.1 ± 1.39,–,5.76 ± 1.02,direct anti-cancer cell activity,–
